Several values for one entry are separate records, joined by “and”; a condition that tells them apart may be missing. Equal values may be shown once.
Molecular target: T1, KDM4A F185A (asKDM4A) in HEK293T cells (Homo sapiens, UniProt O75164, F185A)
T1 construct: we generated the F185A mutation in full-length KDM4A carrying all of the functional domains; host or cells: HEK293T
T1 sequence (O75164 1-1064 F185A): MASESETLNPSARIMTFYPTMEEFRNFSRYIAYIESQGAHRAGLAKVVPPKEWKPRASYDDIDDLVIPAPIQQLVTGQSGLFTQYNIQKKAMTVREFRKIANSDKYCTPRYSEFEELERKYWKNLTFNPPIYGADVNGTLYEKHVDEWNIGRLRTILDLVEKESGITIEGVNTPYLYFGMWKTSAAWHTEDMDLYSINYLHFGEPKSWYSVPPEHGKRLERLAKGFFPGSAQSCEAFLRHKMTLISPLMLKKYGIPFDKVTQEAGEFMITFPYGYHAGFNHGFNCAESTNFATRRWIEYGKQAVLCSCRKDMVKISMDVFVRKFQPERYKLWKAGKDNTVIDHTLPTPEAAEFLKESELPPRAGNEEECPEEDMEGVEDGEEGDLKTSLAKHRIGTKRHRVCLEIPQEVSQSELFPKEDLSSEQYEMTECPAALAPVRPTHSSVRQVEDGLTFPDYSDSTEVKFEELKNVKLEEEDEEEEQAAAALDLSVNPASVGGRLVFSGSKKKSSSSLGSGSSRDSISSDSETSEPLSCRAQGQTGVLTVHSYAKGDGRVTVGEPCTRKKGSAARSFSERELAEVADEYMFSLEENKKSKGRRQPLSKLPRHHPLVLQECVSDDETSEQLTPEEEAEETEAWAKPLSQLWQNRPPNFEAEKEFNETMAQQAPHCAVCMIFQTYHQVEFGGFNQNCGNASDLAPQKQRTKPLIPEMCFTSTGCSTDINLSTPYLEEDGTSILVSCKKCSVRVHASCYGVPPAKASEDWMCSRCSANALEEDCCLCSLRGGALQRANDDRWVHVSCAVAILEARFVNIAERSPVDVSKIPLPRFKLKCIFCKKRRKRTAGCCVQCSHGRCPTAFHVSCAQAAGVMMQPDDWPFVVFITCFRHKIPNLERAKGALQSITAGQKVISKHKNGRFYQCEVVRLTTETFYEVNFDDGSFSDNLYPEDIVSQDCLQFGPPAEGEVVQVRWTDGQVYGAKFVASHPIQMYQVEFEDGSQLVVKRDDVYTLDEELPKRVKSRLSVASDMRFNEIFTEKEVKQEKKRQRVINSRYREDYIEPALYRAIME
Assay: Histone extraction, digestion and tandem mass spectrometry (relative abundance of histone modifications)
Format: cell-based
Details: peptide form; samples 6A_1, 6A_2
Experimental: HEK293T cells were transiently transfected with asKDM4A and treated with varying concentrations of 6A or 6B. […] To further confirm the activity of the enzyme–inhibitor pair, we performed tandem mass spectrometry of tryptic histones isolated from HEK293T cells expressing asKDM4A in the presence or absence of 100 μM 6A. […]
22. Histone extraction, digestion and tandem mass spectrometry
HEK 293-T cells (ATCC CRL-1573) were plated into 6-well plates (Corning) in DMEM (Corning) supplemented with 10% FBS (Corning) and 1X Antibiotic/Antimycin
(Penicillin/Streptomycin/Fungiozone) (Cytiva HyClone) in an incubator held at 37 °C with 5%
CO2. At 75% confluency, cells were transfected with 2.5 µg KDM4A F185A or Empty Vector with 5µg Thermo Turbofect (FERR0531). After 4 hours, the media was washed and 200 µM of 6A or equivalent volume of DMSO was added and left to incubate at 37 °C for 24 hours. Cells were then washed with 1X PBS (Corning) followed by trypsinization (Gibco TrypLE™ Express Enzyme). Collected cells were centrifuged at 3000xg for 3 minutes, followed by washing with 1X PBS and centrifuged for an additional 3000xg for 3 minutes. Histone proteins were extracted from the pellet as described by25 to ensure good-quality identification and quantification of single histone marks. Briefly, cell pellets were dissolved in 100 µL of cold 0.2 M H2SO4 and incubated for 2 hours rotating in a cold room (4 °C). Aliquots were then centrifuged at 3400xg for 5 minutes […]
at 4 °C and the supernatant was added to a fresh tube. 100% cold TCA was then added to a final volume of 33% volume/volume TCA/supernatant and left to incubate for 1 hour in a cold room (4 °C). Samples were then centrifuged at 3400xg for 5 min at 4 °C and the supernatant was discarded. The precipitate was then washed with cold acetone/0.1% HCl and centrifuged at 3400xg for 5 minutes at 4 °C. The supernatant was discarded, and the precipitate was washed with cold acetone and centrifuged at 3400xg for 5 minutes at 4 °C. The supernatant was discarded, and the pellet was dried using a vacuum centrifuge.
The pellet was dissolved in 50 mM ammonium bicarbonate, pH 8.0, and histones were subjected to derivatization using 5 µL of propionic anhydride and 14 µL of ammonium hydroxide (all Sigma Aldrich) to balance the pH at 8.0. The mixture was incubated for 15 min and the procedure was repeated. Histones were then digested with 1 µg of sequencing grade trypsin (Promega) diluted in 50mM ammonium bicarbonate (1:20, enzyme:sample) overnight at room temperature.
Derivatization reaction was repeated to derivatize peptide N-termini. The samples were dried in a […]
Sample desalting: Prior to mass spectrometry analysis, samples were desalted using a 96-well plate filter (Orochem) packed with 1 mg of Oasis HLB C-18 resin (Waters). Briefly, the samples were resuspended in 100 µl of 0.1% TFA and loaded onto the HLB resin, which was previously equilibrated using 100 µl of the same buffer. After washing with 100 µl of 0.1% TFA, the samples were eluted with a buffer containing 70 µl of 60% acetonitrile and 0.1% TFA and then dried in a […]
LC-MS/MS Acquisition and Analysis: Samples were resuspended in 10 µl of 0.1% TFA and loaded onto a Dionex RSLC […] (Thermo Scientific), coupled online with an Orbitrap Fusion Lumos (Thermo Scientific). Chromatographic separation was performed with a two-column system, consisting of a C-18 trap cartridge (300 µm ID, 5 mm length) and a picofrit analytical column (75 µm ID, 25 cm length) packed in-house with reversed-phase Repro-Sil Pur C18-AQ 3 µm resin. Peptides were separated using a 30 min gradient from 1-30% buffer B (buffer A: 0.1% formic acid, buffer B: 80% acetonitrile + 0.1% formic acid) at a flow rate of 300 nl/min.
The mass spectrometer was set to acquire spectra in a data-independent acquisition (DIA) mode.

In the case of `CCCCCCCCOC(=O)C(=O)NC(CC(C)C)C(=O)O` [6A, L-Leu octyl-ester NOG], the “Relative abundance, H3_9_17 K9me1S10ph” value is reported as 7.8% and 0.0004%, the “Relative abundance, H3_9_17 K9me1S10phK14ac” value is reported as 0.0342% and 0.0031% and the “Relative abundance, H3_9_17 K9me2” value is reported as 22.1% and 17.2%. For the same compound, the “Relative abundance, H3_9_17 K9me2K14ac” value was 19.6% and 31.3%, the “Relative abundance, H3_9_17 K9me2S10ph” value was 0.317% and 0.0091% and the “Relative abundance, H3_9_17 K9me2S10phK14ac” value was 0.125% and 0.1%. For the same compound, the “Relative abundance, H3_9_17 K9me3” value was 10.5% and 10.1%, the “Relative abundance, H3_9_17 K9me3K14ac” value was 4.9% and 8.1% and the “Relative abundance, H3_9_17 K9me3S10ph” value was 0.178% and 0.2%. For the same compound, the “Relative abundance, H3_9_17 K9me3S10phK14ac” value was 0.0363% and 0.177%, the “Relative abundance, H3_9_17 K14ac” value was 8.4% and 11.5% and the “Relative abundance, H3_9_17 S10ph” value was 0.0768% and 0.0083%. The “Relative abundance, H3_9_17 S10phK14ac” value was 0.0443% and 0.0008%, the “Relative abundance, H3_9_17 unmod” value was 9.8% and 11.8% and the “Relative abundance, H3_18_26 K18ac” value was 0.249% and 0.34%. For the same compound, the “Relative abundance, H3_18_26 K18acK23ac” value was 0.647% and 0.316%, the “Relative abundance, H3_18_26 K18me1” value was 0.0% and 0.0012% and the “Relative abundance, H3_18_26 K18me1K23me1” value was 0.0%. For the same compound, the “Relative abundance, H3_18_26 K23ac” value was 50.6% and 44.0%, the “Relative abundance, H3_18_26 K23me1” value was 0.0% and 0.0005% and the “Relative abundance, H3_18_26 unmod” value was 48.5% and 55.3%. The “Relative abundance, H3_27_40 K27ac” value was 0.0296% and 0.0%, the “Relative abundance, H3_27_40 K27me1” value was 3.2% and 3.4% and the “Relative abundance, H3_27_40 K27me1K36me1” value was 5.3% and 3.7%. For the same compound, the “Relative abundance, H3_27_40 K27me1K36me2” value was 8.3% and 9.8%, the “Relative abundance, H3_27_40 K27me1K36me3” value was 1.2% and 1.9% and the “Relative abundance, H3_27_40 K27me1S28ph” value was 0.0041% and 0.002%. For the same compound, the “Relative abundance, H3_27_40 K27me2” value was 15.4% and 12.9%, the “Relative abundance, H3_27_40 K27me2K36me1” value was 9.5% and 8.5% and the “Relative abundance, H3_27_40 K27me2K36me2” value was 22.1% and 30.2%. The “Relative abundance, H3_27_40 K27me2S28ph” value was 0.0281% and 0.0017%, the “Relative abundance, H3_27_40 K27me3” value was 11.7% and 6.9% and the “Relative abundance, H3_27_40 K27me3K36me1” value was 3.6% and 2.6%. For the same compound, the “Relative abundance, H3_27_40 K27me3K36me2” value was 3.5% and 4.6%, the “Relative abundance, H3_27_40 K27me3S28ph” value was 0.0216% and 0.0012% and the “Relative abundance, H3_27_40 K36me1” value was 1.9% and 1.7%. For the same compound, the “Relative abundance, H3_27_40 K36me2” value was 3.2% and 4.8%, the “Relative abundance, H3_27_40 K36me3” value was 5.9% and 4.4% and the “Relative abundance, H3_27_40 S28ph” value was 0.0007% and 0.1%. For the same compound, the “Relative abundance, H3_27_40 unmod” value was 5.0% and 4.6%, the “Relative abundance, H3_41_49 Y41ph” value was 0.001% and 0.173% and the “Relative abundance, H3_41_49 unmod” value was 100.0% and 99.8%. The “Relative abundance, H3_54_63 K56ac” value was 0.0%, the “Relative abundance, H3_54_63 K56me2” value was 0.0% and the “Relative abundance, H3_54_63 K56me3” value was 0.0%. The “Relative abundance, H3_73_83 K79ac” value was 0.0%, the “Relative abundance, H3_73_83 K79me3” value was 4.6% and 0.0% and the “Relative abundance, H4_4_17 K5ac” value was 1.3% and 2.1%. For the same compound, the “Relative abundance, H4_4_17 K5acK8ac” value was 0.3% and 1.0%, the “Relative abundance, H4_4_17 K5acK8acK12ac” value was 0.261% and 1.3% and the “Relative abundance, H4_4_17 K5acK8acK12acK16ac” value was 0.0284% and 2.6%. The “Relative abundance, H4_4_17 K5acK8acK16ac” value was 0.279% and 0.9%, the “Relative abundance, H4_4_17 K5acK12ac” value was 0.8% and 3.1% and the “Relative abundance, H4_4_17 K5acK12acK16ac” value was 0.471% and 3.1%. For the same compound, the “Relative abundance, H4_4_17 K5acK16ac” value was 0.7% and 2.5%, the “Relative abundance, H4_4_17 K8ac” value was 1.3% and 1.4% and the “Relative abundance, H4_4_17 K8acK12ac” value was 0.211% and 0.6%. For the same compound, the “Relative abundance, H4_4_17 K8acK12acK16ac” value was 1.2% and 4.4%, the “Relative abundance, H4_4_17 K8acK16ac” value was 1.5% and 3.9% and the “Relative abundance, H4_4_17 K12ac” value was 2.8% and 4.2%. The “Relative abundance, H4_4_17 K12acK16ac” value was 3.3% and 7.5%, the “Relative abundance, H4_4_17 K16ac” value was 24.2% and 24.4% and the “Relative abundance, H4_4_17 unmod” value was 61.3% and 37.2%. For the same compound, the “Relative abundance, H4_20_23 K20ac” value was 0.3% and 1.3%, the “Relative abundance, H4_20_23 K20me1” value was 48.4% and 36.1% and the “Relative abundance, H4_20_23 K20me3” value was 3.5% and 3.6%. For the same compound, the “Relative abundance, H4_20_23 unmod” value was 37.7% and 34.8%, the “Relative abundance, H4_24_35 unmod” value was 100.0% and the “Relative abundance, H4_40_45 K44ac” value was 0.0025% and 0.039%. For the same compound, the “Relative abundance, H4_40_45 unmod” value was 100.0%, the “Relative abundance, H4_79_92 unmod” value was 100.0% and the “Relative abundance, H33_27_40 K27ac” value was 0.0069% and 0.0%. The “Relative abundance, H33_27_40 K27me1” value was 3.6% and 2.5%, the “Relative abundance, H33_27_40 K27me1K36me1” value was 4.8% and 3.5% and the “Relative abundance, H33_27_40 K27me1K36me2” value was 11.0% and 11.1%. The “Relative abundance, H33_27_40 K27me1K36me3” value was 2.1% and 3.4% and the “Relative abundance, H33_27_40 K27me1S28ph” value was 0.0023% and 0.024%.
